In data set [1] the test system is human tTreg. The data set is described as follows: Foxp3 expression in expanded tTreg by flow cytometry. The conditions noted are these: for Foxp3 protein expression at the population level (% Foxp3+CD127−): 50 nM RNA, antagomir vs scrambled P<0.05. The format is cell-based. As for the experimental part:
(§1) tTreg and CD4+ T-cell cultures, generated as described herein, were frozen on days 14 and 7, respectively. Frozen cells were thawed and re-stimulated with anti-CD3/CD28 mAb-coated Dynabeads (Life Technologies, Carlsbad, Calif.) at 1:3 (cell to bead) ratios in the presence of recombinant IL-2. After 6 days, cultures were washed, re-suspended at 1×10^6 cells/ml, and nanoparticle-encapsulated RNA (50 nM; Scramble/Antagomir, Table 4: EXIQON, Woburn, Mass.) or TRAF6 inhibitor (8 μM, Darmstadt, Germany) or NF-kB inhibitor (PS-1145, 3 μM or 6 μM, Millennium Pharmaceuticals, Cambridge, Mass.) were added. DMSO were vehicles and used as controls. Cells were cultured another 2 days without further manipulation, and were harvested and assayed as listed. For some experiments, tTreg were kept in culture longer (as indicated) without further antagomir addition.
(§2) Human-specific antibodies used for flow cytometry included: CD4 (RPA-T4), CD8 (RPA-T8), CD25 (M-A251), CD45RA (HI100), IFN-gamma, IL-17a, annexin V (PE), 7-AAD (FITC) were purchased from BD Pharmingen, while Foxp3 (clone 249D) was obtained from BioLegend and Ki67 from eBioscience. For cytokine analysis, cells were pre-treated by PMA, ionomycin and brefeldin A for 6 hours and then stained by different cytokine antibodies. The annexin V (PE)/7-AAD (FITC) were applied to assess the apoptosis of tTreg. Acquisition was performed using a LSRII (BD Bioscience) and data were analyzed using FlowJo software (TreeStar) or IDEA (Admin). Nuclear localization of NF-kB was quantitated using an imaging flow cytometer (Imagestream, Amnis Corp; Seattle, Wash.) by intracellularly staining tTreg with anti-NF-kB (vendor) and, after washing, incubating with DRAQ5 for 15 minutes at 10 μM final concentration.

Data set [2] concerns human tTreg. Briefly: CFSE in vitro suppression assay (anti-CD3-mediated CD8+ T cell proliferation). The format is cell-based. As for the experimental part: The in vitro-suppressive capacity of expanded tTregs was assessed with a carboxy fluorescein succinimidyl ester (CFSE) inhibition assay as previously published (Hippen et al., Blood, 2008, 112(7):2847-57). Briefly, PBMNCs were purified, labeled with CFSE (Invitrogen), and stimulated with anti-CD3 mAb-coated beads (Dynal) ±cultured tTreg (1:2 to 1:32 tTregs/PBMNCs). On day 4, cells were stained with antibodies to CD4 and CD8, and suppression was determined from the Division Index (FlowJo, TreeStar). nTregs suppressed CD4 and CD8 T cell responses equivalently and only CD8 data are presented.

The next data set deals with TRAF6. Briefly: TRAF6 mRNA (RT-PCR) and protein (flow cytometry) expression in tTreg. The format is cell-based, human. Conditions: expanded tTregs; for TRAF6 mRNA expression: RT-PCR. As for the experimental part: as §1
as §2, with “For cytokine analysis, cells were pre-treated by PMA, ionomycin and brefeldin A for 6 hours and then stained by different cytokine antibodies. The annexin V (PE)/7-AAD (FITC) were applied to assess the apoptosis of tTreg.” left out
(§3) RNA was extracted from cell pellets using RNeasy Mini Kit with on-column DNase digestion (Qiagen; Hilden, Germany). cDNA synthesis was performed as described in the Expression Analysis Technical Manual (Affymetrix; Santa Clara, Calif.). GAPDH was used as control gene and related gene expression (Bcl-2, Mcl-1, Bcl-xL, BID and BAX; all from IDT, Coralville, Iowa), was analyzed on an Applied Biosystems 7500 Real-Time PCR System using Taqman Universal PCR Master Mix #4304437 and Assay on Demand primer/probe kits (Applied Biosystems; Waltham, Mass.). […]
In general terms: A flow cytometer gives signals particle by particle.

Data set [3] deals with human tTreg. Briefly: tTreg expansion, viability (annexin V/7-AAD) and Ki-67 staining. Format: cell-based. As for the experimental part: as §1, §2
For the next data set, the system named is NF-kB. Briefly: NF-kB nuclear localization by imaging flow cytometry. The format is cell-based, human. Conditions: tTreg, 2 days, vs untreated or scramble-treated. Here is the method:
as §2
TRAF6 is critical for TCR-mediated activation of NF-kB, and acts by ubiquitinylating TAK1, leading to activation of IKK and destruction of IkB, which allows NF-kB to translocate to the nucleus. To determine whether miR-146 antagomir enhanced NF-kB nuclear translocation, in vitro expanded tTreg were left untreated or treated for 2 days with scrambled RNA or miR-146b-5p antagomir, stained for CD4, NF-kB and DRAQ5 (a nuclear marker) and analyzed using imaging flow cytometry. […]

Data set [4] has as its system human tTreg. The data set is described as follows: Intracellular IFN-gamma assay after PMA/ionomycin re-stimulation. Format: cell-based. Conditions: final 2 days treatment. Here is the method:
as §2

Data set [5] concerns human tTreg. The data set is described as follows: qRT-PCR of NF-kB-responsive, anti- and pro-apoptotic genes in tTreg. The format is cell-based. As for the experimental part: RNA was extracted from cell pellets using RNeasy Mini Kit with on-column DNase digestion (Qiagen; Hilden, Germany). cDNA synthesis was performed as described in the Expression Analysis Technical Manual (Affymetrix; Santa Clara, Calif.). GAPDH was used as control gene and related gene expression (Bcl-2, Mcl-1, Bcl-xL, BID and BAX; all from IDT, Coralville, Iowa), was analyzed on an Applied Biosystems 7500 Real-Time PCR System using Taqman Universal PCR Master Mix #4304437 and Assay on Demand primer/probe kits (Applied Biosystems; Waltham, Mass.). For TLDA assay, TLDA v2.0 was performed on the 7900HT real-time PCR system (Applied Biosystems) according to the manufacturer's protocol. Average delta CT was acquired from the results for further analysis. PCR cycling conditions were performed as follows: 95° C. for 15 s and 60° C. for 1 min, 40 cycles and then 95° C. for 10 min. To normalize RNA input, Human RNU44 (Table 4) small RNA was used as an internal control.

In the next data set the test system is control CD4 T-cells. The data set is described as follows: Foxp3 expression and suppressive function of control CD4 T-cells. Format: cell-based, human. Conditions: antagomir for final 2 days. As for the experimental part: as §1, with “Cells were cultured another 2 days without further manipulation, and were harvested and assayed as listed. For some experiments, tTreg were kept in culture longer (as indicated) without further antagomir addition.” left out
as §2, with “For cytokine analysis, cells were pre-treated by PMA, ionomycin and brefeldin A for 6 hours and then stained by different cytokine antibodies. The annexin V (PE)/7-AAD (FITC) were applied to assess the apoptosis of tTreg.” left out, “concentration. […]” for “concentration.”

The subject of a further data set is miR-146b-5p. Briefly: miR-146b-5p knockdown in expanded tTreg by qRT-PCR. Format: cell-based, human. As for the experimental part:
as §1, with “For some experiments, tTreg were kept in culture longer (as indicated) without further antagomir addition.” left out
as §3

Turning to `O=C(Nc1cc(Cl)cc2c1[nH]c1cnccc12)c1cccnc1` [PS1145, reference compound], the Foxp3 expression entry in the data set with human tTreg [1] (tTreg, NF-kB inhibitor 3 μM or 6 μM, final 2 days, vs DMSO) is listed as “decreased Foxp3 expression in a dose-dependent manner”. The “in vitro suppressive function” value with human tTreg [2] (tTreg, NF-kB inhibitor, final 2 days) is on record as “significantly decreased in vitro suppressive function”.
In the case of “Scramble: nanoparticle-encapsulated scrambled control RNA, TAA CAC GTC TAT ACG CCC A (SEQ ID NO: 1) (TAACACGTCTATACGCCCA; nanoparticle-encapsulated, chemistry not given here) [reference compound]”, the “Foxp3 protein expression at the population level (% Foxp3+CD127−)” value with human tTreg [1] (tTreg, final 2 days) was 73.1%±4.6%. Moreover, in the data set on TRAF6, the “TRAF6 mRNA expression” value was “no effect was observed”.
In the case of “miR-146b-5p antagomir: nanoparticle-encapsulated antagomir RNA (EXIQON), AGCCTATGGAATTCAGTTCTC (SEQ ID NO: 2) (AGCCTATGGAATTCAGTTCTC; nanoparticle-encapsulated Exiqon antagomir, chemistry not given here)”, the tTreg viability result in the data set with human tTreg [3] (2 days treatment, annexin V/7-AAD) is reported as “increased viability”. Moreover, in the data set on human tTreg [3] (2 days treatment, n=5), the “Ki67 MFI level” value is reported as “higher relative Ki67 MFI level”. Moreover, in the data set on human tTreg [3] (day 8 post single treatment, vs untreated or scrambled RNA), the tTreg expansion result was “expanded significantly more”. The tTreg expansion entry in the data set with human tTreg [3] (initial 2 day treatment period) is “no significant difference in expansion”. In addition, the “NF-kB/DRAQ5 similarity score (nuclear localization)” value with NF-kB is given as “significantly higher similarity scores”. For the same compound, the “IFN-gamma expression in expanded tTregs” value in the data set with human tTreg [4] is reported as “expression was not affected”. Also, in the data set on human tTreg [5] (anti-apoptotic gene, tTreg), the Bcl-xL expression result is recorded as “increased expression” and the Mcl-1 expression result is on record as “increased expression”. The compound also had a c-myc expression increase with human tTreg [5] (over untreated or scramble-treated tTreg) of over 3 fold. Besides, in the data set on human tTreg [5] (pro-apoptotic gene, tTreg), the BAX expression entry is reported as “decreased expression” and the BID expression result is “decreased expression”. In the data set on control CD4 T-cells, the “FoxP3 expression in control CD4 T-cells” value was “no effect on FoxP3 expression” and the “suppressive function of control CD4 T-cells” value is listed as “no effect on FoxP3 expression or suppressive function”. The Foxp3 expression result in the data set with human tTreg [1] (day 8 after single treatment) is reported as “maintained their higher Foxp3 expression”. Further, the “Foxp3 protein expression at the population level (% Foxp3+CD127−)” value in the data set with human tTreg [1] (tTreg, final 2 days) is recorded as 85.5%±3.5%. Moreover, the “Foxp3 protein expression at per-cell level” value in the data set with human tTreg [1] (tTreg, 2 days, compared to scrambled group) is on record as “increased Foxp3 protein expression”. Also, the “TRAF6 mRNA expression” value in the data set on TRAF6 is “significantly higher TRAF6 mRNA expression”. Besides, the TRAF6 protein expression entry in the data set with TRAF6 (flow cytometry, vs untreated or scramble-treated) is given as “significantly enhanced TRAF6 protein expression”. For the same compound, in the data set with human tTreg [2] (day 8 after single treatment), the suppressive function result is “maintained their higher Foxp3 expression and suppressive function”. For the same compound, the “increase in efficacy of tTreg suppressive function” value with human tTreg [2] (tTreg:PBMC 1:8 to 1:32, antagomir-treated at 1:16 as suppressive as scramble-treated at 1:8) was about 2 fold. In the data set with miR-146b-5p (day 8 after a single antagomir treatment (not shown)), this compound yielded a miR-146b expression reduced of 70%. The miR-146b-5p knockdown efficiency with miR-146b-5p (tTreg, nanoparticle-encapsulated antagomir 50 nM, 2 days, qRT-PCR) is on record as over 95%.

These data come from patent publication US20220348870A1, “MATERIALS AND METHODS FOR MODIFYING THE ACTIVITY OF T CELLS” (Regents of the University of Minnesota, priority 2016, published 2022).
